Molecular target: HSD17B13 (Homo sapiens (Human), UniProt Q7Z5P4)
Test: LC/MS estrone detection assay: conversion of estradiol to estrone by HSD17B13
Format: biochemical
Details: 4 μM estradiol, 6 mM NAD+, 30 nM HSD17B13 enzyme (E. coli expressed His-tagged), 2 hours at 26.5° C.
Outline: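 His-tagged E. coli-expressed HSD17B13 (30 nM) with 4 μM estradiol and 6 mM NAD+ in 1 M potassium phosphate pH 7.4, 0.5% DMSO, 2 h at 26.5° C. Estrone and estradiol quantified by LC-MS/MS after MeCN quench with D4-estrone internal standard; activity as % of uninhibited enzyme, IC50 by four-parameter fit, duplicates.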

Chain of HSD17B13 (Q7Z5P4 20-300): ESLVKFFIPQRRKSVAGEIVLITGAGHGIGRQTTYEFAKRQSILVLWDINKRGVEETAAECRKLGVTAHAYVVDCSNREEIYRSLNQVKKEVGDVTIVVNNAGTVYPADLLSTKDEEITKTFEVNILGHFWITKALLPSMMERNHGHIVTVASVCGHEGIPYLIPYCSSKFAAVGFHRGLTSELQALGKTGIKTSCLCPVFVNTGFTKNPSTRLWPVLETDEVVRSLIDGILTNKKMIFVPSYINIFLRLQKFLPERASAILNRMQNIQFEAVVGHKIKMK

Structure (SMILES)	IC50
Cc1ccc(NC(=O)c2cc(Cl)c(O)c(Cl)c2)c2c(=O)n(Cc3ncccc3C(F)(F)F)c(C(F)F)nc12 [Example 164, 3,5-dichloro-N-(2-(difluoromethyl)-8-methyl-4-oxo-3-((3-(trifluoromethyl)pyridin-2-yl)methyl)-3,4-dihydroquinazolin-5-yl)-4-hydroxybenzamide]	100 to 500 nM
Cc1nc2c(Cl)ccc(NC(=O)c3cc(Cl)c(O)c(Cl)n3)c2c(=O)n1Cc1ncccc1C(F)(F)F [Example 165, 4,6-dichloro-N-(8-chloro-2-methyl-4-oxo-3-((3-(trifluoromethyl)pyridin-2-yl)methyl)-3,4-dihydroquinazolin-5-yl)-5-hydroxypicolinamide]	100 to 500 nM
Cc1nc2c(Cl)ccc(NC(=O)c3cc(Cl)c(O)c(Cl)c3)c2c(=O)n1Cc1ncccc1C(F)(F)F [Example 166, 3,5-dichloro-N-(8-chloro-2-methyl-4-oxo-3-((3-(trifluoromethyl)pyridin-2-yl)methyl)-3,4-dihydrjoquinazolin-5-yl)-4-hydroxybenzamide]	100 to 500 nM
Cc1nc2c(Cl)ccc(NC(=O)c3cc(Cl)c(O)c(Cl)n3)c2c(=O)n1Cc1ccccc1C(F)(F)F [Example 170, 4,6-dichloro-N-(8-chloro-2-methyl-4-oxo-3-(2-(trifluoromethyl)benzyl)-3,4-dihydroquinazolin-5-yl)-5-hydroxypicolinamide]	100 to 500 nM
[2H]C([2H])([2H])c1nc2c(F)ccc(NC(=O)c3cc(Cl)c(O)c(Cl)c3)c2c(=O)n1Cc1ccccc1C(F)(F)F [Example 171, 3,5-dichloro-N-(8-fluoro-2-(methyl-d3)-4-oxo-3-(2-(trifluoromethyl)benzyl)-3,4-dihydroquinazolin-5-yl)-4-hydroxybenzamide]	100 to 500 nM
Cc1ccc(NC(=O)c2cc(Cl)c(O)c(Cl)c2)c2c(=O)n(Cc3ncccc3Cl)c(C)nc12 [Example 172, 3,5-dichloro-N-(3-((3-chloropyridin-2-yl)methyl)-2,8-dimethyl-4-oxo-3,4-dihydroquinazolin-5-yl)-4-hydroxybenzamide]	100 to 500 nM
Cc1nc2c(F)ccc(NC(=O)c3cc(Cl)c(O)c(Cl)c3)c2c(=O)n1[C@@H](C)c1ccccc1OC(F)(F)F [Example 173, (S)-3,5-dichloro-N-(8-fluoro-2-methyl-4-oxo-3-(1-(2-(trifluoromethoxy)phenyl)ethyl)-3,4-dihydroquinazolin-5-yl)-4-hydroxybenzamide]	100 to 500 nM
Cc1nc2c(F)ccc(NC(=O)c3cc(Cl)c(O)c(Cl)c3)c2c(=O)n1[C@H](C)c1ccccc1OC(F)(F)F [Example 174, (R)-3,5-dichloro-N-(8-fluoro-2-methyl-4-oxo-3-(1-(2-(trifluoromethoxy)phenyl)ethyl)-3,4-dihydroquinazolin-5-yl)-4-hydroxybenzamide]	100 to 500 nM
Cc1ccc(NC(=O)c2cc(Cl)c(O)c(Cl)n2)c2c(=O)n(Cc3ncccc3C(F)(F)F)c(C(F)F)nc12 [Example 177, 4,6-dichloro-N-(2-(difluoromethyl)-8-methyl-4-oxo-3-((3-(trifluoromethyl)pyridin-2-yl)methyl)-3,4-dihydroquinazolin-5-yl)-5-hydroxypicolinamide]	100 to 500 nM

The next lines start with the values.

IC50	Structure (SMILES)
100 to 500 nM	Cc1nc2c(F)ccc(NC(=O)c3cc(Cl)c(O)c(Cl)n3)c2c(=O)n1Cc1ncccc1C(F)(F)F [Example 155, 4,6-dichloro-N-(8-fluoro-2-methyl-4-oxo-3-((3-(trifluoromethyl)pyridin-2-yl)methyl)-3,4-dihydroquinazolin-5-yl)-5-hydroxypicolinamide]
≤ 100 nM	Cc1nc2c(Cl)ccc(NC(=O)c3cc(Cl)c(O)c(Cl)c3)c2c(=O)n1Cc1ccccc1C(F)(F)F [Example 156, 3,5-dichloro-N-(8-chloro-2-methyl-4-oxo-3-(2-(trifluoromethyl)benzyl)-3,4-dihydroquinazolin-5-yl)-4-hydroxybenzamide]
100 to 500 nM	Cc1nc2c(F)ccc(NC(=O)c3cc(Cl)c(O)c(Cl)c3)c2c(=O)n1C(C)c1ccccc1OC(F)(F)F (stereo not drawn) [Example 157, 3,5-dichloro-N-(8-fluoro-2-methyl-4-oxo-3-(1-(2-(trifluoromethoxy)phenyl)ethyl)-3,4-dihydroquinazolin-5-yl)-4-hydroxybenzamide]
≤ 100 nM	Cc1nc2c(F)ccc(NC(=O)c3cc(Cl)c(O)c(Cl)c3)c2c(=O)n1Cc1ccccc1C(F)(F)F [Example 158, 3,5-dichloro-N-(8-fluoro-2-methyl-4-oxo-3-(2-(trifluoromethyl)benzyl)-3,4-dihydroquinazolin-5-yl)-4-hydroxybenzamide]
100 to 500 nM	Cc1nc2c(F)ccc(NC(=O)c3cc(Cl)c(O)c(Cl)n3)c2c(=O)n1Cc1ccccc1C(F)(F)F [Example 159, 4,6-dichloro-N-(8-fluoro-2-methyl-4-oxo-3-(2-(trifluoromethyl)benzyl)-3,4-dihydroquinazolin-5-yl)-5-hydroxypicolinamide]
≤ 100 nM	Cc1ccc(NC(=O)c2cc(Cl)c(O)c(Cl)n2)c2c(=O)n(Cc3ccccc3OC(F)(F)F)c(C(F)F)nc12 [Example 160, 4,6-dichloro-N-(2-(difluoromethyl)-8-methyl-4-oxo-3-(2-(trifluoromethoxy)benzyl)-3,4-dihydroquinazolin-5-yl)-5-hydroxypicolinamide]
100 to 500 nM	Cc1ccc(NC(=O)c2cc(Cl)c(O)c(Cl)n2)c2c(=O)n(Cc3nn(C)c4ccccc34)c(C)nc12 [Example 162, 4,6-dichloro-N-(2,8-dimethyl-3-((1-methyl-1H-indazol-3-yl)methyl)-4-oxo-3,4-dihydroquinazolin-5-yl)-5-hydroxypicolinamide]
100 to 500 nM	Cc1ccc(NC(=O)c2cc(Cl)c(O)c(Cl)n2)c2c(=O)n(Cc3ccccc3C(F)(F)F)c(C)nc12 [Example 163, 4,6-dichloro-N-(2,8-dimethyl-4-oxo-3-(2-(trifluoromethyl)benzyl)-3,4-dihydroquinazolin-5-yl)-5-hydroxypicolinamide]
≤ 100 nM	Cc1ccc(NC(=O)c2cc(Cl)c(O)c(Cl)c2)c2c(=O)n(Cc3ccccc3C(F)(F)F)c(C(F)F)nc12 [Example 167, 3,5-dichloro-N-(2-(difluoromethyl)-8-methyl-4-oxo-3-(2-(trifluoromethyl)benzyl)-3,4-dihydroquinazolin-5-yl)-4-hydroxybenzamide]
≤ 100 nM	Cc1nc2c(F)ccc(NC(=O)c3cc(Cl)c(O)c(Cl)c3)c2c(=O)n1Cc1ccccc1OC(F)(F)F [Example 168, 3,5-dichloro-N-(8-fluoro-2-methyl-4-oxo-3-(2-(trifluoromethoxy)benzyl)-3,4-dihydroquinazolin-5-yl)-4-hydroxybenzamide]
≤ 100 nM	[2H]C([2H])([2H])c1nc2c(C)ccc(NC(=O)c3cc(Cl)c(O)c(Cl)c3)c2c(=O)n1Cc1ccccc1OC(F)(F)F [Example 169, 3,5-dichloro-4-hydroxy-N-(8-methyl-2-(methyl-d3)-4-oxo-3-(2-(trifluoromethoxy)benzyl)-3,4-dihydroquinazolin-5-yl)benzamide]
≤ 100 nM	[2H]C([2H])([2H])c1nc2c(C)ccc(NC(=O)c3cc(Cl)c(O)c(Cl)n3)c2c(=O)n1Cc1ccccc1OC(F)(F)F [Example 176, 4,6-dichloro-5-hydroxy-N-(8-methyl-2-(methyl-d3)-4-oxo-3-(2-(trifluoromethoxy)benzyl)-3,4-dihydroquinazolin-5-yl)picolinamide]

From US20230278981A1, “DICHLOROPHENOL HSD17B13 INHIBITORS AND USES THEREOF” (INIPHARM, INC., priority 2020, published 2023)
